Values of other authors, collected in patent publication US20220347185A1, “IBOGAINE FORMULATIONS” (CAAMTECH, INC., priority 2019, published 2022).

Legend:
[1] = tested on: rats; details: single dose, Rodriguez et al. 2020
[2] = tested on: heroin addicts; details: 1962
[3] = tested on: rats and mice
[4] = Dzoljic et al. 1988
[5] = tested on: humans; details: Mash et al. 2000
[6] = tested on: mice; details: da Silva et al. 2006

| Structure (SMILES) | antidepressant effects [1] | cravings and withdrawal symptoms [2] | effectiveness of multiple administrations versus a single dose ([3]; additional study results) | self-administration of opiates ([3]; rats and mice) | treating substance addiction (review papers and meta-analyses) | treating opioid addiction (several current studies) | withdrawal from narcotics addiction [4] | depressive symptoms [5] | anticonvulsive effect [6] | antidepressive effect [6] | anxiolytic effect [6] |
| --- | --- | --- | --- | --- | --- | --- | --- | --- | --- | --- | --- |
| CC[C@H]1C[C@@H]2C[C@H]3c4[nH]c5ccc(OC)cc5c4CCN(C2)[C@@H]13 [ibogaine] | caused antidepressant effects | marked reductions in their cravings and withdrawal symptoms | more effective in multiple administrations over time than from a single dose | reduce or interrupt the self-administration of opiates | effective for treating substance addiction | effective for treating opioid addiction | relieve withdrawal from narcotics addiction | significantly decreased depressive symptoms | – | – | – |
| CO[C@H]1C=C2[C@H]3CN(Cc4cc5c(cc43)OCO5)[C@H]2C[C@@H]1O [montanine] | – | – | – | – | – | – | – | – | anticonvulsive | antidepressive effects | anxiolytic |
| CC[C@H]1C[C@@H]2C[C@H]3c4[nH]c5ccc(O)cc5c4CCN(C2)[C@@H]13 [noribogaine] | caused antidepressant effects | – | – | – | – | – | – | – | – | – | – |
